Results on five compounds are retold here after patent publication US7501406B2, “Fluoro substituted 2-oxo-azepan derivatives” (Hoffmann-La Roche Inc., priority 2005, dated 2009).

The target of the test is γ-secretase (Homo sapiens, UniProt P49768). Briefly: in vitro assay of γ-secretase activity (HEK293 membrane fraction, recombinant APP substrate, Abeta ELISA). In kind it is biochemical. Particulars: γ-secretase inhibition; HEK293 membrane fraction as source of γ-secretase, recombinant C-terminal 100 amino acids of human APP as substrate, Abeta detected by ELISA. From the text: Description of γ-secretase Assay
The activity of test compounds can be evaluated in assays which measure the proteolytic cleavage of suitable substrates by γ-secretase activity. These can be cellular assays where e.g., a substrate of γ-secretase is fused in its cytoplasmic domain to a transcription factor. Cells are transfected with this fusion gene and a reporter gene, e.g., firefly luciferase, which expression is enhanced by the transcription factor. Cleavage of the fused substrate by γ-secretase will lead to expression of the reporter gene which can be monitored in appropriate assays. The γ-secretase activity can also be determined in cell-free in vitro assays where e.g., a cell lysate containing the γ-secretase complex is incubated with a suitable APP-derived substrate which is cleaved to the Abeta peptides. The amount of produced peptides can be determined with specific ELISA assays. Cell lines of neuronal origin secrete Abeta peptides which can be measured with the specific ELISA assay. Treatment with compounds which inhibit γ-secretase leads to a reduction of secreted Abeta thus providing a measure of inhibition.
The in vitro assay of γ-secretase activity uses a HEK293 membrane fraction as a source of γ-secretase and a recombinant APP substrate. The latter consists of the C-terminal 100 amino acids of human APP fused to a 6×Histidin tail for purification which is expressed in E. coli in a regulatable expression vector, e.g. pEt15. This recombinant protein corresponds to the truncated APP fragment which results after […] of the extracellular domain and which constitutes the γ-secretase substrate. The assay principle is described in Li Y M et al, PNAS 97(11), 6138-6143 (2000). Hek293 cells are mechanically disrupted, and the microsomal fraction is isolated by differential centrifugation. The membranes are solubilized in detergent (0.25% CHAPSO) and incubated with the APP substrate. The Abeta peptides which are produced by γ-secretase cleavage of the substrate are detected by specific ELISA assays as described (Brockhaus M et al, Neuroreport 9(7), 1481-1486 (1998).
The preferred compounds show a IC50<10 nM. In the list below are described some data to the γ-secretase inhibition: […]
A general note: In an ELISA, binding on a coated surface is turned into a signal by an enzyme label.
The term IC50 denotes the concentration that inhibits the measured activity by half. Consider `O=C(NC1CC1)c1ccc(CN([C@@H]2CCC(F)(F)CNC2=O)S(=O)(=O)c2ccc(Cl)cc2)cc1` [Example 13, 4-{[(4-Chloro-benzenesulfonyl)-((R)-6,6-difluoro-2-oxo-azepan-3-yl)-amino]-methyl}-N-cyclopropyl-benzamide], for which the IC50 was determined as 297 nM. On to `COc1ccc(CN([C@@H]2CC(F)(F)CCNC2=O)S(=O)(=O)c2ccc(Cl)s2)cn1` [Example 17, 5-Chloro-thiophene-2-sulfonic acid ((R)-5,5-difluoro-2-oxo-azepan-3-yl)-(6-methoxy-pyridin-3-ylmethyl)-amide], for which the IC50 came out at 110 nM. Next, `COc1ccc(CN([C@@H]2CC(F)(F)CCNC2=O)S(=O)(=O)c2ccc(Cl)cc2)c(F)c1F` [Example 4, 4-Chloro-N-(2,3-difluoro-4-methoxy-benzyl)-N-((R)-5,5-difluoro-2-oxo-azepan-3-yl)-benzenesulfonamide]: 2 nM.

For `O=C1NCCC(F)(F)C[C@H]1N(Cc1ccc(-c2ncn[nH]2)cc1F)S(=O)(=O)c1ccc(Cl)cc1` [Example 12, 4-Chloro-N-((R)-5,5-difluoro-2-oxo-azepan-3-yl)-N-[2-floro-4-(2H-[1,2,4]triazol-3-yl)-benzyl]-benzenesulfonamide], the IC50 turned out to be 6 nM. In the case of `COc1ccc(CN([C@@H]2CC(F)(F)CCNC2=O)S(=O)(=O)CCC(F)(F)F)cn1` [Example 16, 3,3,3-Trifluoro-propane-1-sulfonic acid ((R)-5,5-difluoro-2-oxo-azepan-3-yl)-(6-methoxy-pyridin-3-ylmethyl)-amide] it was 150 nM.
